In US11213522B2, “Autoimmune-induced glutamatergic receptor dysfunction methods and treatments” (SARAH HERZOG MEMORIAL HOSPITAL EZRAT NASHIM ASSOCIATION, priority 2013, dated 2022):

Test system: patient positive for anti-NR1 NMDAR antibodies
Test: Positive and Negative Syndrome Scale (PANSS), D-serine clinical trial
Format: in vivo, human
Settings: for PANSS Negative: week 0 score 18; for PANSS Positive: week 0 score 24; for PANSS General: week 0 score 55; for PANSS Total: week 0 score 97
From the text: Out of the seventeen patients that entered the study, the serum of one patient was strongly positive at both serum sample dilutions for the presence of both IgG and IgM classes of anti-NR1 NMDAR antibodies. The patient was a single person having a diagnosis of schizophrenia according to DSM-IV-R criteria (American Psychiatric Association, 2000 Diagnostic and Statistical Manual of Mental Disorders-(DSM-IV-TR), 4th edition. American Psychiatric Association Washington D.C. (Text Revision)). There was no history of mental disorder in the patient's family. The patient had completed post-high school studies and had worked as a secretary. After a period of continuous headaches, for which no organic basis had been found, they had abruptly developed an acute psychosis characterized by grandiose and paranoid delusions, mystical thinking, […] affect and agitation, They had been hospitalized in a psychiatric hospital and underwent treatment with antipsychotic drugs and electroconvulsive therapy with only partial response. The patient had never returned to their previous functional and except for short attempts at living in the community, has been hospitalized ever since. They have been refractory to treatment with various classes of antipsychotic drugs, was not diagnosed with any medical or neurological disorder and was maintained on sulpiride 50 mg/day, citalopram 40 mg/day, lorazepam 1 mg/day and promethazine 50 mg/day. […] DSR is a naturally occurring amino acid that acts in vivo as an obligatory co-agonist at the glycine modulatory site associated with NMDAR. […] Both acute and chronic administration of 1-2 g DSR in humans is known to result in ≥100 times increases in DSR serum levels (Kantrowitz et al., 2010, Schizophr Res121:125-30; Heresco-Levy et al., 2005, Biol Psychiatry 57:577-85). The trial consisted of two periods, starting with a 2 week lead-in/stabilization period (-2-0) following which the patient was entered in the second period of the study which consisted of a 6 week (0-6), open-label, fixed dose therapy phase. During this phase, the patient received adjuvant treatment with DSR, whose dose was increased from 1500 mg/day (week 1) to 2000 mg/day (weeks 2 and 3) to 3000 mg/day (weeks 4 and 5) and to 4000 mg/day (week 6). The doses of the ongoing medication received by the patient remained fixed throughout the study and no changes in medication were performed. The assessment procedures used in the study included clinical and neurocognitive examinations. Motor and psychiatric symptoms as well as side-effects were rated biweekly throughout the study. The following instruments were used: 1) Positive and Negative Syndrome Scale (PANSS) (Kay et al., 1987, Positive and Negative Syndrome Scale (PANSS) rating manual. San Rafael California: Social and Behavioral Sciences Documents); 2) Quality of Life Scale (QLS) (Wilkinson et al., 2000, Self-report quality of life measure for people with schizophrenia: the SQLS. Br J Psychiatry 177:42-6); 3) Abnormal Involuntary Movement Scale (AIMS) (Guy, 1976, ECDEU Assessment Manual for Psychopharmacology-Revised. Rockville, Md.: US Dept. of Health, Education and Welfare); 4) Simpson Angus Scale for Extrapyramidal Symptoms (SAS) (Simpson and Angus, 1970, Acta Psychiatr Scand Suppl. 212:11-9); and 5) Udvalg for […] Undersogelser (UKU) Side Effect Rating Scale (Lingjaerde, et al., 1987 Acta Psychiatr Scand Suppl 334:1-100). In conjunction with UKU ratings, patient's vital signs and body weight were monitored throughout the study.

## N[C@H](CO)C(=O)O [D-serine]
During treatment with DSR
  PANSS positive, negative and general psychopathology symptom domains: improved
End of study vs baseline total score of 97
  Total PANSS score lower by the end of the study: 17%
Study week 2
  PANSS Negative: 19
  PANSS Positive: 21
  PANSS General: 54
  PANSS Total: 96
Study week 4
  PANSS Negative: 17
  PANSS Positive: 21
  PANSS General: 51
  PANSS Total: 89
Study week 6
  PANSS Negative: 16
  PANSS Positive: 19
  PANSS General: 45
  PANSS Total: 80
